Measurements published in paper PMC6934184, “Selective DNA-PKcs inhibition extends the therapeutic index of localized radiotherapy and chemotherapy” (The Journal of Clinical Investigation, 2019).

Target: T1, BRAF V599E (Homo sapiens, UniProt P15056, V600E)
T1 construct: purchased Thermo Fisher Scientific (Life Technologies) SelectScreen
Assay: SelectScreen Z'LYTE
Type: biochemical
Conditions: ATP 100 µM
Outline: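 Compound tested in SelectScreen activity assays, Z'LYTE for CSF1R, CDK1/cyclin B and MAP2K6 and Adapta for CAMK1. ATP for CAMK1 was listed as 10, and Km app was used for CSF1R. Results are expressed in percent.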

T1 sequence (P15056 417-766 V600E limits assumed): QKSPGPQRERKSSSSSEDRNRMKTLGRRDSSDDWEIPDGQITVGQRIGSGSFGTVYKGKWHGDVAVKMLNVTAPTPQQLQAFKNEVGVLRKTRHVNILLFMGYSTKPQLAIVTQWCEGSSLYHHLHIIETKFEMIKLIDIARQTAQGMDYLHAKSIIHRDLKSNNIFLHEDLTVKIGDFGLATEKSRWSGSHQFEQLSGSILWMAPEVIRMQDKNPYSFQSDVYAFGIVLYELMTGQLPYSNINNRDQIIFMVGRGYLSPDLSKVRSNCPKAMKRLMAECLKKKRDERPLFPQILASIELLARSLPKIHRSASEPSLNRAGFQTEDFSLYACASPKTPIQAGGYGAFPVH

**Q.** Which inhibition at 1 µM does the source give for `CN(C(=O)CN1CCOCC1)c1ccc2sc3c(-c4cccc5c(=O)cc(N6CC7CCC(C6)O7)oc45)cccc3c2c1` [NU5455] here?
**A.** The inhibition at 1 µM was 18.3%.
